Laboratory results taken from PMC8304761, “Development of an Androgen Receptor Inhibitor Targeting the N-Terminal Domain of Androgen Receptor for Treatment of Castration Resistant Prostate Cancer” (Cancers, 2021).

Tests used:
[1] = system: prostate specific antigen (PSA); assay: Secreted PSA levels in LNCaP cells; format: cell-based; details: Homo sapiens; LNCaP cells; read-out: IC50, secreted PSA levels
Text: Next, we tested the activity of VPC-220010 against full length AR using an AR-eGFP transcription assay in LNCaP cells. […] To further validate VPC-220010 as an AR inhibitor, we evaluated its ability to reduce the production of endogenous prostate specific antigen (PSA) in PCa cell lines. PSA is an AR-regulated serine protease and is widely used as a biomarker for PCa.

LNCaP cells = assay: Proliferation assay (PrestoBlue), LNCaP; format: cell-based; details: Homo sapiens, 72 h, R1881, Figure 2C, read-out: IC50, viability of LNCaP cells
Protocol: (§1) Proliferation assay: LNCaP, 22Rv1 and PC3 cells were plated at 3000 cells per well in RPMI1640 containing 5% CSS in a 96-well plate, treated with 0.1 nm R1881 (a synthetic androgen) and test compounds (0–25 μM) for 72 h. Cell proliferation was determined using the PrestoBlue^TM cell proliferation assay following incubation with the compound […] over 72 h. In brief, 30 μL of the PrestoBlue^TM reagent was added to cells in each well of the 96-well plate containing 200 μL of media and incubated for 60 min at 37 °C in 5% CO2. The production of […]. Fluorescence measurement was read on a TECAN F200.
(§2) We then evaluated the effect of VPC-220010 on the proliferation of androgen-dependent LNCaP and ARV7-dependent 22Rv1 cells.

22Rv1 cells = assay: Proliferation assay (PrestoBlue), 22Rv1; format: cell-based; details: Homo sapiens, 72 h, Figure 2D, read-out: IC50, viability of 22Rv1 cells
Protocol: as §1, §2

AR-NTD (Gal4DBD-AR1-558) = target: T1, AR-NTD (Gal4DBD-AR1-558) (Homo sapiens, UniProt P10275); assay: NTD-transactivation assay (mammalian two hybrid, forskolin) in LNCaP cells; format: cell-based; details: varying concentrations; Figure 3
T1 construct: expressed in transfected cells; host or cells: LNCaP
T1 sequence (P10275 1-558): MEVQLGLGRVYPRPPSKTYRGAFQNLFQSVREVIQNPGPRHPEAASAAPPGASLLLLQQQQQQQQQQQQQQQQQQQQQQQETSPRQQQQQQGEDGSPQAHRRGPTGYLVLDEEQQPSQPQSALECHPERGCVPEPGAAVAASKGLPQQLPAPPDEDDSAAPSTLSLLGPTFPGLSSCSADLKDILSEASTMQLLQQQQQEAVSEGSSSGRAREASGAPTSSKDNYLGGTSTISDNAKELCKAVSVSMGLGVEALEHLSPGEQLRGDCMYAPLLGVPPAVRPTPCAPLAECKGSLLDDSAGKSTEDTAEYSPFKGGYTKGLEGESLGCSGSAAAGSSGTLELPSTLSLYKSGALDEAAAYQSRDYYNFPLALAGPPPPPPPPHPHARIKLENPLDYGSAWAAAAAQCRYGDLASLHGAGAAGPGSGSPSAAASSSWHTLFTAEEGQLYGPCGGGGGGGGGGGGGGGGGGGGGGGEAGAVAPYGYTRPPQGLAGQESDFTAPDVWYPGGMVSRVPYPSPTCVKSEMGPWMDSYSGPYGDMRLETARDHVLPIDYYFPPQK
Protocol: Following 48 h incubation, cells were then treated with compounds at various concentrations and 0.1 nm R1881 (in 100% ethanol) for 24 h for AR assays. GR, ER, and PR activation was stimulated with 1 nm dexamethasone, estradiol, or progesterone, respectively. […] Cell lysis was carried out with 60 μL of 1× passive lysis buffer/well (Promega Madison, WI, USA). 20 μL of cell lysate from each well were mixed with 50 μL of luciferase assay reagent (Promega Madison, WI, USA), and luminescence was recorded on a TECAN M200pro plate reader.
To confirm the proposed mechanism of VPC-220010 we tested the effect of this compound on NTD-mediated transactivation. […] When incubated with forskolin, this system induces transcription activity through phosphorylation of the AR-NTD [10].

[2] = system: ARV7-regulated genes UBE2C, AKT1 and CDC20; assay: qPCR of ARV7-regulated genes in 22Rv1 cells; format: cell-based, human; details: Figure 5B
Protocol: Total RNA was extracted from cells with Trizol and the Qiagen RNeasy RNA Extraction Kit (Qiagen Germantown, MD, USA). Approximately 8 × 10^6 cells were collected per sample, with three biological replicates for each treatment. The concentrations and the qualities of the RNA samples were checked by Nanodrop. cDNA was prepared busing MMLV-Reverse Transcriptase (Thermo Fisher Scientific, Waltham, MA, USA). qRT-PCR was performed with LightCycler® 480 SYBR Green I Master (Roche, Basel, Switzerland).

PSA = system: PSA; set-up: method as in doi:10.1200/JCO.2019.37.7_suppl.257; details: patients, metastatic CRPC, low levels of circulating EPI-506; cited from earlier work

## CC(C)(c1ccc(OCC(O)CO)cc1)c1ccc(OCC(O)CCl)cc1 (stereo not drawn) [EPI-001, reference compound]
[1]
  IC50: > 25 µM
LNCaP cells
  IC50: > 25 µM
22Rv1 cells
  IC50: > 50 µM
AR-NTD (Gal4DBD-AR1-558)
  AR-NTD activity induced by forskolin: inhibited
[2]
  expression of ARV7-regulated genes UBE2C, AKT1 and CDC20 (qPCR): inhibited

## CC(=O)OC[C@H](COc1ccc(C(C)(C)c2ccc(OC[C@@H](CCl)OC(C)=O)cc2)cc1)OC(C)=O [EPI-506]
PSA
  decrease in PSA: 4–29%
